In this test the target is canine TRPM8 (Canis lupus familiaris, UniProt Q1A7N1). As to the kind of experiment: In Vitro Canine TRPM8 Functional Assay (Ca2+ fluorescence, icilin activation). The note with it: for IC50: read-out: IC50; for inhibition at 0.2 µM: read-out: % Inh @ 0.2; for inhibition at 0.5 µM: compound at 0.5 μM, read-out: % Inh @ 0.5. Format: cell-based. The method in brief:
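HEK293 cells stably expressing canine TRPM8 loaded with Calcium 3 dye; compound added and Ca2+ fluorescence monitored 5 min before icilin at a final level giving ~80% maximal response, read on FLIPR or FDSS. EC50 or IC50 from eight-point dose-response, quadruplicate wells per point.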

Where [1] appears, read: HEK293 cells stably expressing canine TRPM8, icilin activation, eight-point dose-response.
The mark [2] stands for this setting: compound at 0.2 μM, canine TRPM8, icilin activation.
Setting [3] is: canine TRPM8, icilin activation.
[4] abbreviates: 0.2 μM compound, HEK293 cells stably expressing canine TRPM8, icilin activation.
Setting [5] is: HEK293 cells stably expressing canine TRPM8, icilin activation, average of two or more determinations.

Like-named read-outs stand apart in the source and are kept apart here.

For orientation: IC50 means the concentration at which inhibition is half-maximal.

canine TRPM8, sequence (Q1A7N1 1-1104): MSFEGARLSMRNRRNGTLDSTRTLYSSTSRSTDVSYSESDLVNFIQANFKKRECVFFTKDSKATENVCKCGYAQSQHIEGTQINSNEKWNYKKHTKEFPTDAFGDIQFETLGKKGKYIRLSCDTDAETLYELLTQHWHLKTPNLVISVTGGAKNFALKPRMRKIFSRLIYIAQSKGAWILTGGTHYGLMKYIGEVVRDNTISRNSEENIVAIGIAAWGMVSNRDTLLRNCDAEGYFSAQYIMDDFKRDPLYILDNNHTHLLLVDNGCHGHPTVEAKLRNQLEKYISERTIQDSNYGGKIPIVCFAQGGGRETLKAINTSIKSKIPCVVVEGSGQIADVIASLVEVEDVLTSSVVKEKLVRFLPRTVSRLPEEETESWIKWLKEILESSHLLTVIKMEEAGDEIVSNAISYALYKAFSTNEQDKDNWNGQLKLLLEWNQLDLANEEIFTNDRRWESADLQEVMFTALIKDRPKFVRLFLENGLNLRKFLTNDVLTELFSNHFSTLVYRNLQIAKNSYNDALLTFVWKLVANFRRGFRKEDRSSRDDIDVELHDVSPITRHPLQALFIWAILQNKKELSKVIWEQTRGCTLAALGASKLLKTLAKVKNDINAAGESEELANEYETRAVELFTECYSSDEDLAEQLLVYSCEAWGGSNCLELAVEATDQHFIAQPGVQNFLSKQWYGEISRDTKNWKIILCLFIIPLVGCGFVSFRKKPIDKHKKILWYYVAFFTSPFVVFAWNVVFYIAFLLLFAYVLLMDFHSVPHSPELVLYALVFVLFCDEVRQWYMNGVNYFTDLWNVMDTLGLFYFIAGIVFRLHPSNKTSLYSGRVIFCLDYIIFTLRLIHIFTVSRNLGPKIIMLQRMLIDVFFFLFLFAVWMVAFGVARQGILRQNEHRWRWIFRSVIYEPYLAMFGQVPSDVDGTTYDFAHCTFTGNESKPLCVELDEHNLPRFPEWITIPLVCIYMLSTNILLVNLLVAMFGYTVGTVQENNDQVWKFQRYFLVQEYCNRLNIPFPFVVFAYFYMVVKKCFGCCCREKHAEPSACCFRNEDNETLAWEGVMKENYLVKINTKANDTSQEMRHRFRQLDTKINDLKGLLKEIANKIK

For the compound `CCS(=O)(=O)N(Cc1ccc(F)c(C(F)(F)F)c1)c1sc2ccccc2c1C(C)(C)O` [Compound 227, N-(4-Fluoro-3-trifluoromethyl-benzyl)-N-[3-(1-hydroxy-1-methyl-ethyl)-benzo[b]thiophen-2-yl]-ethanesulfonamide], under setting [1], the 50% inhibitory concentration (IC50) came out at 0.6 nM. The inhibition at 0.2 µM under setting [2] worked out at 101%.
Take `Cc1c(N(Cc2ccc3c(c2)OCO3)S(=O)(=O)c2ccc(C(=O)O)cc2)sc2ccccc12` [Compound 523, N-(3-Methyl-benzo[b]thiophen-2-yl)-N—(C-benzo[1,3]dioxol-5-yl-methy)-4-carboxy-benzenesulfonamide]: the IC50 under setting [1] stood at 2 nM. In addition, the “% Inh @ 0.2 (μM)” value under setting [2] worked out at 101%.
Take `COC(=O)CCS(=O)(=O)N(CCC1CC1)c1sc2ccccc2c1C` [Compound 600, N-(2-Cyclopropyl-ethyl)-N-(3-methyl-benzo[b]thiophen-2-yl)-2-carbomethoxy-ethanesulfonamide]: the IC50 under setting [1] is 8.9 nM. Under setting [2], the inhibition at 0.2 µM stood at 101%.
Regarding `Cc1c(N(Cc2ccccc2)S(=O)(=O)c2ccc(C(=O)O)cc2)sc2ccccc12` [Compound 486, N-(3-Methyl-benzo[b]thiophen-2-yl)-N-(benzyl)-4-carboxy-benzenesulfonamide], under setting [2], the inhibition at 0.2 µM amounted to 100%.
Turning to `Nc1ccc(S(=O)(=O)N(CCC(F)(F)F)c2sc3ccccc3c2Cl)cc1` [Compound 585, 4-Amino-N-(3-chloro-benzo[b]thiophen-2-yl)-N-(3,3,3-trifluoro-propyl)-benzenesulfonamide], under setting [1], the half-maximal inhibitory concentration (IC50) was determined as 6.4 nM. Also, the inhibition at 0.2 µM under setting [2] was 101%.
Take `O=S(=O)(c1ccccc1)N(CCc1ccccc1)c1cc2ccccc2s1` [Compound 115, N-(Benzo[b]thiophen-2-yl)-N-(phenethyl)-benzenesulfonamide]: under setting [1], the IC50 was found to be 79.5 nM. Moreover, the inhibition at 0.5 µM under setting [3] worked out at 95%.
Turning to `Cc1c(N(CCC(F)(F)F)S(=O)(=O)CC(F)(F)F)sc2ccccc12` [Compound 671, N-(3-Methyl-benzo[b]thiophen-2-yl)-N-(3,3,3-trifluoro-propyl)-2,2,2-trifluoro-ethanesulfonamide], the half-inhibitory concentration (IC50) under setting [1] was found to be 34.5 nM. For the same compound, the inhibition at 0.2 µM under setting [2] stood at 100%.
Consider `CCOC(=O)CCCCCN(c1sc2ccccc2c1Br)S(=O)(=O)c1ccccc1` [Compound 230, N-(3-Bromo-benzo[b]thiophen-2-yl)-N-(5-carboethoxy-pentyl)benzenesulfonamide], for which the IC50 under setting [1] was 12.9 nM. Besides, under setting [2], the inhibition at 0.2 µM is 100%.
As for `CCCCNS(=O)(=O)N(CCCC)c1sc2ccccc2c1Br` [Compound 849, N-(3-Bromo-benzo[b]thiophen-2-yl)-N,N′-bis-butyl-sulfamide], under setting [4], the inhibition at 0.2 µM was found to be 25%.
On to `CN(C)S(=O)(=O)N(CC(F)F)c1sc2ccccc2c1Br` [Compound 268, N-(3-Bromo-benzo[b]thiophen-2-yl)-N-(2,2-difluoro-ethyl)-N′,N′-dimethylsulfamide], for which, under setting [2], the inhibition at 0.2 µM was 67%.
Consider `CC(=O)c1c(N(Cc2ccc(OC(F)(F)F)cc2)S(=O)(=O)c2ccc(C#N)cc2)sc2ccccc12` [Compound 772, N-(3-Acetyl-benzo[b]thiophen-2-yl)-N-(4-trifluoromethoxy-benzyl)-4-cyano-benzenesulfonamide], for which the half-maximal inhibitory concentration (IC50) under setting [1] amounted to 5.7 nM. In addition, under setting [2], the inhibition at 0.2 µM was 95%.
For `Cc1c(N(CCCC(F)(F)F)S(=O)(=O)CCC(=O)O)sc2ccccc12` [Compound 605, N-(3-Methyl-benzo[b]thiophen-2-yl)-N-(4,4,4-trifluoro-butyl)-2-carboxy-ethanesulfonamide], the inhibition at 0.2 µM under setting [2] was 18%.
Regarding `O=S(=O)(c1ccccc1)N(Cc1ccccc1OC(F)(F)F)c1sc2ccccc2c1Br` [Compound 172, N-(3-Bromo-benzo[b]thiophen-2-yl)-N-(2-trifluoromethoxy-benzyl)-benzenesulfonamide], under setting [1], the 50% inhibitory concentration (IC50) worked out at 11.1 nM. Besides, the inhibition at 0.5 µM under setting [3] worked out at 98%.
Consider `CC(C)(C)OCCN(c1sc2ccccc2c1Br)S(=O)(=O)c1ccc(C(=O)O)cc1` [Compound 275, N-(3-Bromo-benzo[b]thiophen-2-yl)-N-(2-tert-butoxy-ethyl)-4-carboxy-benzenesulfonamide], for which the half-inhibitory concentration (IC50) under setting [1] was 3 nM. Further, under setting [2], the inhibition at 0.2 µM turned out to be 97%.
Take `O=S1NC(c2ccc(S(=O)(=O)N(CCC3CC3)c3sc4ccccc4c3Cl)cc2)=NO1` (stereo not drawn) [Compound 625, N-(3-Chloro-benzo[b]thiophen-2-yl)-N-(cyclopropyl-ethyl)-4-(3H-[1,2,3,5]oxathiadiazole-2-oxide)-benzenesulfonamide]: the half-maximal inhibitory concentration (IC50) under setting [1] stood at 20.4 nM. For the same compound, under setting [2], the “% Inh @ 0.2 (μM)” value is on record as 103%.
Regarding `O=C(O)c1ccc(S(=O)(=O)N(CC2CCC2)c2sc3ccccc3c2Br)cc1` [Compound 437, N-(3-Bromo-benzo[b]thiophen-2-yl)-N-(cyclobutylmethyl)-4-carboxy-benzenesulfonamide], the 50% inhibitory concentration (IC50) under setting [1] worked out at 9 nM. Moreover, the inhibition at 0.2 µM under setting [2] is 92%.
As for `Cc1c(N(Cc2ccc(F)c(C(F)(F)F)c2)S(=O)(=O)CCCCBr)sc2ccccc12` [Compound 771, N-(4-Fluoro-3-trifluoromethyl-benzyl)-N-(3-methyl-benzo[b]thiophen-2-yl)-4-bromo-butane-1-sulfonamide], the concentration for half-maximal inhibition (IC50) under setting [1] was 7.2 nM. The inhibition at 0.2 µM under setting [2] is 96%.
For `Cc1c(N(CC2CC2)S(=O)(=O)c2ccc(C(=O)O)cc2)sc2ccccc12` [Compound 399, N-(3-Methyl-benzo[b]thiophen-2-yl)-N-(cyclopropylmethyl)-4-carboxy-benzenesulfonamide], in that order: 36 nM and 93%.
In the case of `CN(C)S(=O)(=O)N(CCOC(C)(C)C)c1sc2ccccc2c1Br` [Compound 267, N-(3-Bromo-benzo[b]thiophen-2-yl)-N-(2-tert-butoxy-ethyl)-N′,N′-dimethylsulfamide], the 50% inhibitory concentration (IC50) under setting [1] stood at 10 nM. Besides, the inhibition at 0.2 µM under setting [2] worked out at 96%.
With `CCCCN(c1sc2ccccc2c1C(C)(C)O)S(=O)(=O)c1ccc(C(C)=O)cc1` [Compound 344, N-(Butyl)-N-(3-(1-hydroxy-1-methyl-ethyl)-benzo[b]thiophen-2-yl)-4-acetyl-benzenesulfonamide], under setting [1], the IC50 was determined as 12.7 nM. Under setting [2], the inhibition at 0.2 µM was determined as 99%.
As to `COc1ccc(CN(c2cc3ccccc3s2)S(=O)(=O)c2ccccc2)cc1` [Compound 49, N-(Benzo[b]thiophen-2-yl)-N-(4-methoxy-benzyl)-benzenesulfonamide], the IC50 under setting [1] was 170 nM. Moreover, under setting [3], the inhibition at 0.5 µM was 90%.
`CCCCN(c1sc2ccccc2c1Br)S(=O)(=O)c1ccc(C(N)=NO)cc1` [Compound 473, N-(3-Bromo-benzo[b]thiophen-2-yl)-N-(butyl)-4-N-hydroxy-benzamidinesulfonamide]: under setting [1], the concentration for half-maximal inhibition (IC50) is 9 nM. The “% Inh @ 0.2 (μM)” value under setting [2] was determined as 102%.
Turning to `O=S(=O)(c1ccccc1)N(Cc1cccc(F)c1)c1sc2ccccc2c1Cl` [Compound 23, N-(3-Chloro-benzo[b]thiophen-2-yl)-N-(3-fluoro-benzyl)-benzenesulfonamide], the 50% inhibitory concentration (IC50) under setting [1] stood at 26 nM. Besides, under setting [3], the inhibition at 0.5 µM came to 99%.
With `Cc1c(N(CCCCC(F)(F)F)S(=O)(=O)c2ccc(-c3nsc(=O)[nH]3)cc2)sc2ccccc12` [Compound 640, N-(3-Methyl-benzo[b]thiophen-2-yl)-N-(5,5,5-trifluoro-pentyl)-4-(5-oxo-4,5-dihydro-[1,2,4]thiadiazol-3-yl)-benzenesulfonamide], under setting [1], the IC50 was determined as 11 nM. The inhibition at 0.2 µM under setting [2] was determined as 103%.
Consider `Cc1c(N(CCF)S(=O)(=O)c2ccc(F)c(F)c2)sc2ccccc12` [Compound 841, N-(2-Fluoro-ethyl)-N-(3-methyl-benzo[b]thiophen-2-yl)-3,4-difluoro-benzenesulfonamide], for which the inhibition at 0.2 µM under setting [4] stood at 55%.
For the compound `CC(C)(C)OCCN(c1sc2ccccc2c1Br)S(=O)(=O)c1ccccc1` [Compound 234, N-(3-Bromo-benzo[b]thiophen-2-yl)-N-(2-tert-butoxy-ethyl)-benzenesulfonamide], the 50% inhibitory concentration (IC50) under setting [1] was 10 nM. Besides, the inhibition at 0.5 µM under setting [3] came to 93%.
For `CCCCS(=O)(=O)N(Cc1ccc(F)c(F)c1)c1cc2ccccc2s1` [Compound 37, N-(Benzo[b]thiophen-2-yl)-N-(3,4-difluoro-benzyl)-butane-1-sulfonamide], in that order: 98.3 nM and 96%.
As for `Cc1c(N(CCCCC(F)(F)F)S(=O)(=O)c2ccc(-c3nn(C)c(=O)[nH]3)cc2)sc2ccccc12` [Compound 812, N-(3-Methyl-benzo[b]thiophen-2-yl)-N-(5,5,5-trifluoro-pentyl)-4-(1-methyl-5-oxo-4,5-dihydro-1H-[1,2,4]triazol-3-yl)-benzenesulfonamide], the inhibition at 0.2 µM under setting [4] was 103%. The IC50 under setting [5] turned out to be 7.6 nM.
For the compound `Cc1c(N(Cc2ccccc2)S(=O)(=O)c2ccc(F)c(F)c2)sc2ccccc12` [Compound 825, N-(Benzyl)-N-(3-methyl-benzo[b]thiophen-2-yl)-3,4-difluoro-benzenesulfonamide], under setting [4], the inhibition at 0.2 µM was found to be 89%. Besides, the IC50 under setting [5] is 25 nM.
Take `O=c1[nH]c(-c2ccc(S(=O)(=O)N(CCC3CC3)c3sc4ccccc4c3Cl)cc2)no1` [Compound 627, N-(3-Chloro-benzo[b]thiophen-2-yl)-N-(cyclopropyl-ethyl)-4-(5-oxo-4,5-dihydro-[1,2,4]oxadiazol-3-yl)-benzenesulfonamide]: the concentration for half-maximal inhibition (IC50) under setting [1] is 8.6 nM. Besides, the inhibition at 0.2 µM under setting [2] was determined as 103%.
For `CCS(=O)(=O)N(Cc1ccc(F)c(C(F)(F)F)c1)c1sc2ccccc2c1CNC` [Compound 347, N-(4-Fluoro-3-trifluoromethyl-benzyl)-N-(3-methylaminomethyl-benzo[b]thiophen-2-yl)-ethanesulfonamide], in that order: 57.1 nM and 95%.
